Literature values, collected in patent publication US20230241042A1, “USE OF PENEHYCLIDINE IN TREATMENT OR PREVENTION OF VISION-IMPAIRING EYE DISEASES” (GRAND LIFE SCIENCES GROUP (WUHAN) CO., LTD., priority 2020, published 2023).

Legend:
FDM [1] = conditions: daily subconjunctival injection
FDM [2] = conditions: in vivo
[3] = test system: chick modeled eyes with visual form deprivation myopia (FDM); conditions: day 8, 0.01% by mass injected into the vitreous cavity
experimental myopia = conditions: topical eye drops or oral administration

| SMILES | inhibition of the occurrence of FDM (FDM [1]) | prevention of FDM and retinal damage (FDM [2]) | other results |
| --- | --- | --- | --- |
| C[N+]1(C)CCC(OC(=O)C(c2ccccc2)c2ccccc2)CC1.[I-] [4-DAMP] | ineffective | – | – |
| C[C@@H]1OC(=O)[C@H]2C[C@H]3CCCC[C@@H]3[C@@H](/C=C/[C@H]3CCC[C@H](C)N3C)[C@@H]12 [Himbacine] | – | certain effect in preventing FDM without retinal damage | – |
| CC[N+](C)(CC)CCOC(=O)C(O)(c1ccccc1)C1CCCCC1 (stereo not shown) [Oxypheneonium, Oxyphenonium] | – | certain effect in preventing FDM without retinal damage | – |
| CN1[C@@H]2CC[C@H]1C[C@@H](OC(=O)C(CO)c1ccccc1)C2 (stereo partly shown) [atropine] | – | certain effect in preventing FDM without retinal damage | induced myopia [3]: −2.8 D; ocular axis extension [3]: 0.21 mm |
| COc1ccccc1CNCCCCCCNCCCCCCCCNCCCCCCNCc1ccccc1OC [methoctramine] | ineffective | – | – |
| CN1CCN(CC(=O)N2c3ccccc3C(=O)Nc3cccnc32)CC1 [pirenzepine] | could inhibit the occurrence of FDM | certain effect in preventing FDM without retinal damage | – |
| OC(CCN1CCCCC1)(c1ccccc1)C1CCCCC1 (stereo not shown) [trihexyphenidyl] | – | – | prevention of the progression of experimental myopia (experimental myopia): not effective in preventing the progression of experimental myopia |
